The supplement of paper PMC10307832

Experiments:
Assay in all cases: relative viability (nuclei count vs DMSO), 5 days (fraction); higher = more cells survive
Doramapimod + Navitoclax = compound: Cc1ccc(-n2nc(C(C)(C)C)cc2NC(=O)Nc2ccc(OCCN3CCOCC3)c3ccccc23)cc1 [Doramapimod] + CC1(C)CCC(c2ccc(Cl)cc2)=C(CN2CCN(c3ccc(C(=O)NS(=O)(=O)c4ccc(N[C@H](CCN5CCOCC5)CSc5ccccc5)c(S(=O)(=O)C(F)(F)F)c4)cc3)CC2)C1 [Navitoclax] (partner 0.5 µM)
Summary of the method: (§1)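 Relative viability is defined as nuclei in treated wells over nuclei in vehicle wells. Duplicate plates were run and medians reported. Lung cancer cell lines in 1536-well plates were dosed by pin tool one day after seeding, with one drug or with a fixed anchor-drug dose plus five library-drug doses (not always all listed) in √10 steps, and nuclei were counted after 5 days.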

Doramapimod + Pictilisib = compound: Cc1ccc(-n2nc(C(C)(C)C)cc2NC(=O)Nc2ccc(OCCN3CCOCC3)c3ccccc23)cc1 [Doramapimod] + CS(=O)(=O)N1CCN(Cc2cc3nc(-c4cccc5[nH]ncc45)nc(N4CCOCC4)c3s2)CC1 [Pictilisib] (partner 1 µM)
Summary of the method: as §1

RAF265 + Palbociclib = compound: Cn1c(Nc2ccc(C(F)(F)F)cc2)nc2cc(Oc3ccnc(-c4ncc(C(F)(F)F)[nH]4)c3)ccc21 [RAF265] + CC(=O)c1c(C)c2cnc(Nc3ccc(N4CCNCC4)cn3)nc2n(C2CCCC2)c1=O [Palbociclib] (partner 0.5 µM)
Summary of the method: as §1

RAF265 + Linsitinib = compound: Cn1c(Nc2ccc(C(F)(F)F)cc2)nc2cc(Oc3ccnc(-c4ncc(C(F)(F)F)[nH]4)c3)ccc21 [RAF265] + C[C@]1(O)C[C@@H](c2nc(-c3ccc4ccc(-c5ccccc5)nc4c3)c3c(N)nccn32)C1 [Linsitinib] (partner 1 µM)
Summary of the method: as §1

Cell Line: UMC-11
- relative viability (Doramapimod + Navitoclax; first compound 0.02 µM): 0.304
- relative viability (Doramapimod + Navitoclax; first compound 0.06325 µM): 0.275
- relative viability (Doramapimod + Navitoclax; first compound 0.2 µM): 0.323
- relative viability (Doramapimod + Navitoclax; first compound 0.6325 µM): 0.344
- relative viability (Doramapimod + Navitoclax; first compound 2 µM): 0.271
- relative viability (Doramapimod + Pictilisib; first compound 0.02 µM): 0.726
- relative viability (Doramapimod + Pictilisib; first compound 0.06325 µM): 0.759
- relative viability (Doramapimod + Pictilisib; first compound 0.2 µM): 0.726
- relative viability (Doramapimod + Pictilisib; first compound 0.6325 µM): 0.547
- relative viability (Doramapimod + Pictilisib; first compound 2 µM): 0.615
- relative viability (RAF265 + Palbociclib; first compound 0.01 µM): 0.309
- relative viability (RAF265 + Palbociclib; first compound 0.03162 µM): 0.336
- relative viability (RAF265 + Palbociclib; first compound 0.1 µM): 0.334
- relative viability (RAF265 + Palbociclib; first compound 0.3162 µM): 0.314
- relative viability (RAF265 + Palbociclib; first compound 1 µM): 0.32
- relative viability (RAF265 + Linsitinib; first compound 0.01 µM): 1
- relative viability (RAF265 + Linsitinib; first compound 0.03162 µM): 0.993
- relative viability (RAF265 + Linsitinib; first compound 0.1 µM): 0.953
- relative viability (RAF265 + Linsitinib; first compound 0.3162 µM): 0.986
- relative viability (RAF265 + Linsitinib; first compound 1 µM): 0.973
